{"source": "patent US5364615A", "about": "(priority 1992, dated 1994)", "origin": "cited, not measured here", "tested_on": "Pneumocystis carinii", "conditions": "cited from earlier work", "data": [{"smiles": "N=C(N)c1ccc(OCCCCCOc2ccc(C(=N)N)cc2)cc1", "note": "[pentamidine, p,p'-(pentamethylenedioxy)dibenzamidine]", "values": [{"measurement": "Pre therapy DLCO", "setting": "baseline, literature", "result": 59.0, "unit": "percent predicted"}, {"measurement": "Pre therapy PaO2", "setting": "baseline, literature", "result": 69.3, "unit": "torr"}, {"measurement": "Pre therapy Vital Capacity", "setting": "baseline, literature", "result": 70, "unit": "percent predicted"}, {"measurement": "Successful Treatment W/ Change, %", "setting": "literature", "result": 95, "unit": "%"}, {"measurement": "Successful Treatment w/o Change, %", "setting": "literature", "result": 40, "unit": "%"}, {"measurement": "Post therapy PaO2", "setting": "post therapy, literature (TMP-DPS: only 8 patients tested)", "result": 87.2, "unit": "torr"}, {"measurement": "Post therapy DLCO", "setting": "post therapy, literature", "result": 62, "unit": "percent predicted"}, {"measurement": "Post therapy Vital Capacity", "setting": "post therapy, literature", "result": 80, "unit": "percent predicted"}]}]}
